The source of these data is patent US12186302B2, “Dipeptidyl peptidase-IV inhibitor and food with function claims” (TOYOTA JIDOSHA KABUSHIKI KAISHA, priority 2020, dated 2025).

Experiment [1] addresses T1, DPP-IV (Homo sapiens, UniProt P27487). Conditions: background art, JP Patent Publication (Kokai) No. 2018-118939 A; cited from earlier work.
For experiment [2], the target named is T1, DPP-IV. Put plainly: DPP (IV) Inhibitor Screening Assay Kit (Cayman Chemical), fluorescence. It counts as biochemical. Conditions: for DPP-IV inhibitory activity (inhibition rate, FIG. 1): comparison of various catechins, 37° C., 30 minutes. The source says: In this Example, various catechins including a methylated catechin were used to examine their DPP-IV inhibitory activity. Regarding the DPP-IV inhibitory activity, a commercially available DPP (IV) Inhibitor Screening Assay Kit (manufactured by Cayman Chemical) was used. Catechins tested in this Example were epicatechin-3-O-gallate (ECG), epicatechin (EC), epigallocatechin(EGC), (−)-epigallocatechin gallate (EGCG), and (−)-epigallocatechin 3-(3″-O-methyl)gallate (EGCG3″Me). These catechins were purchased from Nagara Science Co., Ltd. In addition, caffeine was purchased from Sigma-Aldrich, and L-theanine was purchased from FUJIFILM Wako Pure Chemical Corporation for testing.
In the experiment, first, a sample (5 μL), buffer (15 μL), DPP-IV (5 μL), and a substrate (25 μL) were added to a 96-well plate and incubated at 37° C. for 30 minutes. Then, the fluorescence intensity was measured by using a fluorometer (Envision 2104 Multilaber Reader, manufactured by Perkin Elmer) (excitation wavelength: 355 nm; fluorescence wavelength: 450 nm).
Next, the fluorescence intensity measured with the addition of ultrapure water (5 μL), buffer (20 μL), and a substrate (25 μL) was subtracted as a background from the fluorescence intensity of each sample. The fluorescence intensity measured with the addition of ultrapure water (5 μL), buffer (15 μL), DPP-IV (5 μL), and a substrate (25 μL) was defined as 100% initial activity.
The inhibition rate was calculated by subtracting the fluorescence intensity of the sample from the fluorescence intensity of 100% initial activity, then dividing the difference by the fluorescence intensity of 100% initial activity, and finally multiplying the quotient by 100. As a positive control, sitagliptin included in the kit was used.
Specifically, in the experiment described above, the concentration of EGCG3″Me was set to 1 μM, 5 μM, 10 μM, 50 μM, 100 μM or 200 μM, and the DPP-IV inhibitory activity was measured using the DPP (IV) Inhibitor Screening Assay Kit.

T1 sequence (P27487 whole entry): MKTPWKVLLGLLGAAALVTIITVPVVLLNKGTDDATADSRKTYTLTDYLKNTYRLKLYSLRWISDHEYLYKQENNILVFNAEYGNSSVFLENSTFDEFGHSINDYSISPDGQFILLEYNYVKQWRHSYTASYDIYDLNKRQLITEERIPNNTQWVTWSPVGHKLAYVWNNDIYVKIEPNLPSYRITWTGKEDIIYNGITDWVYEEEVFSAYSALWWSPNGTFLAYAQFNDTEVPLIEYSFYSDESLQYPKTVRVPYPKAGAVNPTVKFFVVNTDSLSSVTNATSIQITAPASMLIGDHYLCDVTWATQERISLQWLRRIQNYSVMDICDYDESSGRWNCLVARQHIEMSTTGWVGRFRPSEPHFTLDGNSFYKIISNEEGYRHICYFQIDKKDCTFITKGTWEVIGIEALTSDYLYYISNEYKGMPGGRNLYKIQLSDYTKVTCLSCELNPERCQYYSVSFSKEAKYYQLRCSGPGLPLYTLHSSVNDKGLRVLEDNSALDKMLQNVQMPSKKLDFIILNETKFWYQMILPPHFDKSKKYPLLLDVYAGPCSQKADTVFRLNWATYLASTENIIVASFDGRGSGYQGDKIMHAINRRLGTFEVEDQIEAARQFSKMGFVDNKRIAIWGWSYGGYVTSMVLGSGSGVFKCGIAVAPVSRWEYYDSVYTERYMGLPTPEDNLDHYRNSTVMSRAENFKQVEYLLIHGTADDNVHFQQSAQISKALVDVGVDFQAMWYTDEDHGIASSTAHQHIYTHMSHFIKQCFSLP

As for `O=C(O[C@@H]1Cc2c(O)cc(O)cc2O[C@@H]1c1ccc(O)c(O)c1)c1cc(O)c(O)c(O)c1` [ECg, epicatechin gallate], on DPP-IV [1], the DPP-IV inhibitory effect entry was “have the DPP-IV inhibitory effect”.
Regarding `Oc1cc(O)c2c(c1)O[C@H](c1cc(O)c(O)c(O)c1)[C@H](O)C2` [EGC, epigallocatechin], the DPP-IV inhibitory effect entry at DPP-IV [1] is given as “have the DPP-IV inhibitory effect”.
As to `Oc1cc(O)c2c(c1)O[C@H](c1cc(O)c(O)c(O)c1)[C@@H](O)C2` [GC, gallocatechin], the DPP-IV inhibitory effect result on DPP-IV [1] was “have the DPP-IV inhibitory effect”.
For the compound `O=C(O[C@@H]1Cc2c(O)cc(O)cc2O[C@H]1c1cc(O)c(O)c(O)c1)c1cc(O)c(O)c(O)c1` [GCg, gallocatechin gallate], on DPP-IV [1], the DPP-IV inhibitory effect result is recorded as “have the DPP-IV inhibitory effect”.
Turning to (−)-epigallocatechin gallate [EGCG], the “DPP-IV inhibitory activity (inhibition rate, FIG. 1)” value on DPP-IV [2] is “excellent DPP-IV inhibitory activity”. Moreover, the DPP-IV inhibitory effect result on DPP-IV [1] is “have the DPP-IV inhibitory effect”.
catechin gallate [Cg]: on DPP-IV [1], the DPP-IV inhibitory effect entry is given as “have the DPP-IV inhibitory effect”.
Regarding “epigallocatechin-3-O-(3-O-methyl)gallate [EGCG3″Me]”, the “relationship between concentration and DPP-IV inhibitory activity (FIG. 2)” value at DPP-IV [2] (1 μM, 5 μM, 10 μM, 50 μM, 100 μM or 200 μM) was “tends to increase as the concentration increases”. The “DPP-IV inhibitory activity (inhibition rate, FIG. 1)” value on DPP-IV [2] was “particularly excellent DPP-IV inhibitory activity”. Besides, the “DPP-IV inhibitory activity (FIG. 2)” value at DPP-IV [2] (when concentration exceeds 50 μM) was “extremely excellent DPP-IV inhibitory activity”.
